Consider eleven molecules from PubChem BioAssay (NCI).

Molecules are shown by their SMILES. Where “and” joins values, the source holds several entries; their conditions need not be identical. Equal values may be shown once.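 All cell lines were grown in 96-well plates and treated with compound for 48 hours. At the GI50, growth is halved. TGI marks complete inhibition of growth.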 A value given as a limit tells only on which side of the number the result lay.

Some test systems named below: CCRF-CEM leukemia; IGROV1 ovarian; NCI-H23 lung; NCI-H460 lung; OVCAR-4 ovarian; OVCAR-8 ovarian; SK-MEL-28 melanoma; UO-31 renal; 786-0 renal; CAKI-1 renal.
What all share (assay): NCI-60 cell line screen, 48 h

With `O=C1CSc2sc(=S)sc2S1`, the TGI in the assay on CCRF-CEM leukemia, in the assay with IGROV1 ovarian, with NCI-H23 lung, in the assay with NCI-H460 lung, in the assay with OVCAR-4 ovarian and with OVCAR-8 ovarian was > 100 µM throughout. The TGI with SK-MEL-28 melanoma and with UO-31 renal was > 100 µM throughout.

For `CCc1cccc(C(C)C)c1NC1=C([n+]2ccc(C)cc2)C(=O)c2ccccc2C1=O`, the TGI was 12.1 µM in the assay on 786-0 renal; 5.41 µM in the assay with CAKI-1 renal; 4 µM in the assay with CCRF-CEM leukemia; 8.18 µM in the assay with IGROV1 ovarian; > 100 µM in the assay with NCI-H23 lung; 4.09 µM in the assay with NCI-H460 lung. Further, the TGI in the assay on OVCAR-4 ovarian came out at 10.9 µM; in the assay on OVCAR-8 ovarian it was 4.79 µM; in the assay with SK-MEL-28 melanoma, 20.8 µM; in the assay with UO-31 renal, 10 µM.

In the case of `NS(=O)(=O)c1ccc(N=Nc2ccc(O)c(O)c2)cc1`, the TGI is > 100 µM in the assay on 786-0 renal; > 100 µM in the assay with CAKI-1 renal; 60 µM in the assay with CCRF-CEM leukemia; 28.3 µM in the assay on IGROV1 ovarian; 51.8 µM with NCI-H23 lung; 58.9 µM with NCI-H460 lung. The TGI in the assay on OVCAR-4 ovarian was determined as 29.1 µM; with OVCAR-8 ovarian it was 21.5 µM; with SK-MEL-28 melanoma, 37.2 µM; in the assay with UO-31 renal, 26.4 µM.

On to `O=NN(CCCl)C(=O)Nc1ccc(Cl)c(Cl)c1`, for which the TGI in the assay with CAKI-1 renal, with CCRF-CEM leukemia, in the assay with IGROV1 ovarian, in the assay on NCI-H23 lung, with NCI-H460 lung and in the assay with OVCAR-4 ovarian was > 100 µM throughout. Further, the TGI was > 100 µM with OVCAR-8 ovarian, > 100 µM with SK-MEL-28 melanoma and 99.3 µM in the assay on UO-31 renal.

For `OCCSCc1cc(Cl)cc(Cl)c1O`, the TGI in the assay with 786-0 renal, with CAKI-1 renal, with CCRF-CEM leukemia, with IGROV1 ovarian, with NCI-H23 lung and in the assay with NCI-H460 lung was > 100 µM throughout. Besides, the TGI in the assay with OVCAR-4 ovarian, in the assay on OVCAR-8 ovarian, in the assay on SK-MEL-28 melanoma and in the assay with UO-31 renal was > 100 µM each time.

Turning to `Nc1nccc2c1ncn2C1C=C(CO)C(O)C1O` (stereo not given), the GI50 was 1.91 µM in the assay with CCRF-CEM leukemia; > 1000 µM in the assay on IGROV1 ovarian; 269 µM in the assay with NCI-H23 lung; 0.578 µM in the assay on NCI-H460 lung; > 1000 µM in the assay with OVCAR-4 ovarian; 23.9 µM in the assay on OVCAR-8 ovarian. Besides, the GI50 in the assay on SK-MEL-28 melanoma was 0.852 µM. For the same molecule, the TGI with CCRF-CEM leukemia, with IGROV1 ovarian, with NCI-H23 lung, in the assay on NCI-H460 lung, with OVCAR-4 ovarian and with OVCAR-8 ovarian was > 1000 µM in each case. Besides, the TGI in the assay with SK-MEL-28 melanoma is > 1000 µM.

In the case of `COc1cc(CCC(=O)O)c2cc3ccccc3cc2c1O`, the TGI was found to be 30.4 µM in the assay on 786-0 renal; 33.8 µM with CAKI-1 renal; 13.8 µM in the assay with CCRF-CEM leukemia; 41.1 µM in the assay on IGROV1 ovarian; 51.6 µM with NCI-H23 lung; 47.2 µM in the assay with NCI-H460 lung. In addition, the TGI with OVCAR-4 ovarian turned out to be 29.7 µM; in the assay on OVCAR-8 ovarian, 30.6 µM; in the assay with SK-MEL-28 melanoma, 48.4 µM; in the assay on UO-31 renal, 35.7 µM.

As to `Cc1cc(O)c2cc3c(O)c(O)ccc3cc2c1`, the TGI with 786-0 renal was > 47.8 µM; in the assay on CAKI-1 renal, 6.63 µM; in the assay on CCRF-CEM leukemia, 22.6 µM; in the assay with IGROV1 ovarian, 10.8 µM; in the assay with NCI-H23 lung, 6 µM; in the assay with NCI-H460 lung, 3.63 µM. Besides, the TGI with OVCAR-4 ovarian was 5.53 µM; with OVCAR-8 ovarian it was 11.2 µM; in the assay with SK-MEL-28 melanoma, > 58.8 µM; in the assay on UO-31 renal, 2.22 µM.

Regarding `Cc1ccc(NC(=O)CC(=O)n2nc(-c3ccccc3)c(N=Nc3ccccc3C(=O)O)c2-c2ccccc2)cc1`, the TGI in the assay with CAKI-1 renal, in the assay with IGROV1 ovarian, in the assay with OVCAR-4 ovarian, with OVCAR-8 ovarian, with SK-MEL-28 melanoma and in the assay on UO-31 renal was > 100 µM in each case.

As for `COc1cccc2c1C(=O)c1c(O)c3c(c(O)c1C2=O)C[C@@](O)(C(C)=O)C[C@@H]3OC1CC(N(C)C)C(O)C(C)O1` (stereo not given in full), the TGI in the assay with 786-0 renal is 1.36 µM; with CAKI-1 renal, 0.56 µM and 0.593 µM; in the assay with OVCAR-4 ovarian, 0.52 µM and 0.977 µM; with OVCAR-8 ovarian, 2.8 µM and 3.75 µM. The GI50 in the assay on CCRF-CEM leukemia is 0.0291 µM; with IGROV1 ovarian, 0.0218 µM and < 0.0111 µM; in the assay with NCI-H23 lung it was 0.0394 µM and < 0.0142 µM; with NCI-H460 lung, 0.00786 µM; with OVCAR-4 ovarian, < 0.0164 µM; in the assay on OVCAR-8 ovarian, 0.00719 µM. In addition, the results for the GI50 in the assay with SK-MEL-28 melanoma and with UO-31 renal were 0.0475 µM and 0.0561 µM, respectively.

Consider `O=CN(O)CC(=O)O.[Ni]`, for which the TGI with 786-0 renal, in the assay on CAKI-1 renal, in the assay with CCRF-CEM leukemia, in the assay with IGROV1 ovarian, in the assay on NCI-H23 lung and with NCI-H460 lung was > 100 µM each time. The TGI with OVCAR-4 ovarian, in the assay with OVCAR-8 ovarian, in the assay with SK-MEL-28 melanoma and in the assay with UO-31 renal was > 100 µM throughout. Also, the GI50 in the assay with CAKI-1 renal is > 100 µM.
